# Experimental data taken from patent publication US9695240B2, “Anthracycline derivative conjugates, process for their preparation and their use as antitumor compounds” (Genentech, Inc., priority 2008, dated 2017).
# “Also recorded” adds a separate entry of the source.
# How the values were obtained:
# [1] = system: SK-BR-3 cells; assay: CellTiter-Glo in vitro cell proliferation assay, SK-BR-3; format: cell-based
# Source text: (§1) Cell-based in vitro assays may be used to measure viability, i.e. proliferation (IC50), cytotoxicity (EC50), and induction of apoptosis (caspase activation) of the ADC. The CellTiter-Glo® Luminescent Cell Viability Assay is a commercially available (Promega Corp., Madison, Wis.), homogeneous assay method based on the recombinant expression of Coleoptera luciferase (U.S. Pat. Nos. 5,583,024; 5,674,713; 5,700,670). This cell proliferation assay determines the number of viable cells in culture based on quantitation of the ATP present, an indicator of metabolically active cells (Crouch et al (1993) J. Immunol. Meth. 160:81-88; U.S. Pat. No. 6,602,677). The CellTiter-Glo® Assay is conducted in 96 well format, making it amenable to automated high-throughput screening (HTS) (Cree et al (1995) AntiCancer Drugs 6:398-404). The homogeneous assay procedure involves adding the single reagent (CellTiter-Glo® Reagent) directly to cells cultured in serum-supplemented medium. Cell washing, removal of medium and multiple pipetting steps are not required. The system detects as few as 15 cells/well in a 384-well format in 10 minutes after adding reagent and mixing.
# (§2) The in vitro potency of antibody-drug conjugates was measured by a cell proliferation assay (FIGS. 8-29). The CellTiter-Glo® Luminescent Cell Viability Assay is a commercially available (Promega Corp., Madison, Wis.), homogeneous assay method based on the recombinant expression of Coleoptera luciferase (U.S. Pat. Nos. 5,583,024; 5674,713; 5,700,670). This assay determines the number of viable cells in culture based on quantitation of the ATP present, an indicator of metabolically active cells (Crouch et al (1993) J. Immunol. Meth. 160:81-88; U.S. Pat. No. 6,602,677). The CellTiter-Glo® Assay was conducted in 96 well format, making it amenable to automated high-throughput screening (HTS) (Cree et al (1995) AntiCancer Drugs 6:398-404). The homogeneous assay procedure involves adding the single reagent (CellTiter-Glo® Reagent) directly to cells cultured in serum-supplemented medium.
# (§3) The homogeneous “add-mix-measure” format results in cell lysis and generation of a luminescent signal proportional to the amount of ATP present. The substrate, Beetle Luciferin, is oxidatively decarboxylated by recombinant firefly luciferase with concomitant conversion of ATP to AMP and generation of photons. Viable cells are reflected in relative luminescence units (RLU). Data can be recorded by luminometer or CCD camera imaging device. The luminescence output is presented as RLU, measured over time. Alternatively, photons from luminescence can be counted in a scintillation counter in the presence of a scintillant. The light units can be represented then as CPS—counts per second.
# (§4) Efficacy of ADC were measured by a cell viability assay employing the following protocol, adapted from CellTiter Glo Luminescent Cell Viability Assay, Promega Corp. Technical Bulletin TB288 and Mendoza et al (2002) Cancer Res. 62:5485-5488: • 1. An aliquot of 50 μl of cell culture containing about 1000 or more cells, including: HER2-expressing and CD22-expressing cells, in medium was deposited in each well of a 96-well, opaque-walled, clear bottom plate. • 2. ADC (50 μl) was added to triplicate experimental wells to final concentration of 10 μg/mL, with “no ADC” control wells receiving medium alone, and incubated for 3 or more days. • 3. The plates were equilibrated to room temperature for approximately 30 minutes. • 4. CellTiter-Glo Reagent (100 μl) was added. • 5. The contents were mixed for 2 minutes on an orbital shaker to induce cell lysis. • 6. The plate was incubated at room temperature for 10 minutes to stabilize the luminescence signal. • 7. Luminescence was recorded and reported in graphs as RLU=relative luminescence units.
# [2] = system: BT-474 cells; assay: CellTiter-Glo in vitro cell proliferation assay, BT-474; format: cell-based
# Source text: as §1, §2, §3, §4
# [3] = system: MCF7 cells; assay: CellTiter-Glo in vitro cell proliferation assay, MCF7; format: cell-based, human
# Source text: as §1, §2, §3, §4
# [4] = system: doxorubicin-resistant (DoxRes) HER2 cells; assay: CellTiter-Glo in vitro cell proliferation assay, doxorubicin-resistant HER2; format: cell-based
# Source text: as §1, §2, §3, §4
# [5] = system: Burkitt's lymphoma Bjab-luc xenograft tumors; assay: in vivo Bjab-luc xenograft tumor efficacy study; set-up: species or system CB17 SCID mice
# Description: The therapeutic effect of the antibody-drug conjugate (ADC) compounds and the improvement of their therapeutic efficacy in comparison with the parent drug, were assessed in animal models of human transplanted tumors. Mice bearing xenografts of human tumors were treated with suitable doses of antibody-drug conjugates, of PNU-159682 free drug, and naked antibody, at certain doses, and the tumor growth was recorded and compared in the different treatment groups. FIGS. 30-32 show the efficacy of the antibody-drug conjugates of Formula Ic by xenograft tumor inhibition in mice.
# The efficacy of the antibody-drug conjugates of the invention may be measured in vivo by implanting allografts or xenografts of cancer cells or primary tumors in rodents and treating the tumors with ADC according to the procedures of Example 12. Variable results are to be expected depending on the cell line, the specificity of antibody binding of the ADC to receptors present on the cancer cells, dosing regimen, and other factors. For example, the in vivo efficacy of anti-HER2 ADC may be measured by a high expressing HER2 transgenic explant mouse model. […] Subjects are treated once with ADC and monitored over 3-6 weeks to measure the time to tumor doubling, log cell kill, and tumor shrinkage. Follow up dose-response and multi-dose experiments may be further conducted.
# The Bjab-luc (EBV-negative Burkitt's lymphoma, luciferase expressing Bjab cells) tumors express CD22 receptor protein (Polson et al (2009) Cancer Res. 69(6):2358-2364; US 2008/0050310; US 2005/0276812). CD22 is expressed only in the B-cell compartment and on the surface of most NHL cells (D'Arena et al (2000) Am J Hematol. 64:275-81; Olejniczak et al (2006) Immunol Invest. 35:93-114). Efficacy in inhibiting the Bjab-luc xenograft tumor in mice as a model system may predict the clinical response in treating patients with hematopoietic malignancies such as non-Hodgkins lymphoma.
# Efficacy studies were performed using SCID mice (Charles River Laboratories). […] When tumor volumes reached 150-200 mm^3 (typically Day 14 to Day 21 after inoculation), the mice were segregated into sample groups of 9-10 mice per group and the tumor volume was determined in each mouse. […] ADC doses were either measured as the mass of the conjugated cytotoxic small molecule drug per surface area of the mouse, or as a constant mass of ADC per mass of the mouse (e.g., 5 mg of ADC/kg mouse). […] Tumor volume was measured using calipers according to the formula: V (mm^3)=0.5A×B^2, where A and B are the long and short diameters, respectively. […] Data collected from each experimental group were expressed as mean±SE.
# [6] = system: tumor models; settings: cited from earlier work
# [7] = 8.77 ug/kg single iv dose day 0, 48 day study
smiles,measurement,setting,value
"COc1cccc2c1C(=O)c1c(O)c3c(c(O)c1C2=O)C[C@@](O)(C(=O)CO)C[C@@H]3O[C@H]1C[C@H]2[C@H](O[C@@H]3[C@@H](OC)OCCN32)[C@H](C)O1 [PNU-159682, 3′-deamino-3″,4′-anhydro-[2″(S)-methoxy-3″(R)-oxy-4″-morpholinyl]doxorubicin, reference compound]","SK-BR-3 in vitro cell viability at 3 days, in words",[1]; brief (1 hr) exposure,effectively inhibited growth
same,"SK-BR-3 in vitro cell viability at 3 days, anti-proliferative activity in words","[1]; continuous exposure, 3 days",most potently inhibited; also recorded: caused cytotoxicity at all doses tested
same,"BT-474 in vitro cell viability at 3 days, in words",[2]; brief (1 hr) exposure,effectively inhibited growth
same,"BT-474 in vitro cell viability at 3 days, anti-proliferative activity in words","[2]; continuous exposure, 3 days",most potently inhibited; also recorded: caused cytotoxicity at all doses tested
same,"MCF7 in vitro cell viability at 3 days, in words",[3]; brief (1 hr) exposure,effectively inhibited growth
same,"MCF7 in vitro cell viability at 3 days, anti-proliferative activity in words","[3]; continuous exposure, 3 days",most potently inhibited; also recorded: caused cytotoxicity at all concentrations tested
same,"DoxRes HER2 in vitro cell viability at 3 days, in words",[4]; brief (1 hr) exposure,effectively inhibited growth
same,"DoxRes HER2 in vitro cell viability at 3 days, anti-proliferative activity in words","[4]; continuous exposure, 3 days",most potently inhibited; also recorded: inhibited growth at all concentrations tested
same,CR-complete tumor regression,[5]; [7],0
same,PR-partial tumor regression,[5]; [7],0
same,TI-tumor incidence,[5]; [7],9/9
same,"tumor growth inhibition in Bjab-luc xenograft, in words","[5]; single dosing on day 0, doses of FIG. 30",no effect on tumor growth
same,"antitumor activity in in vivo tumor models, in words",[6],effective in vivo tumor models
